From paper PMC5428509, “Irreversible inhibition of BTK kinase by a novel highly selective inhibitor CHMFL-BTK-11 suppresses inflammatory response in rheumatoid arthritis model” (Scientific Reports, 2017)

What was measured:
Assay in all cases: biochemical
Parameters in all cases: KinomeScan competition binding panel (DiscoveRx), percent of control at 1 uM
Conditions in all cases: read-out: Percent Control
SGK2 = SGK2 (Homo sapiens, UniProt Q9HBY8)
Method in brief: (§1)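 KinomeScan technology used to profile binding across a panel of 456 kinases and mutants.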

JNK2 = target: T1, JNK2 (Homo sapiens, UniProt P45984)
T1 construct: gene MAPK9
Method in brief: as §1

MST4 = target: T2, MST4 (Homo sapiens, UniProt Q9P289)
T2 construct: gene STK26
T2 sequence (Q9P289 whole entry): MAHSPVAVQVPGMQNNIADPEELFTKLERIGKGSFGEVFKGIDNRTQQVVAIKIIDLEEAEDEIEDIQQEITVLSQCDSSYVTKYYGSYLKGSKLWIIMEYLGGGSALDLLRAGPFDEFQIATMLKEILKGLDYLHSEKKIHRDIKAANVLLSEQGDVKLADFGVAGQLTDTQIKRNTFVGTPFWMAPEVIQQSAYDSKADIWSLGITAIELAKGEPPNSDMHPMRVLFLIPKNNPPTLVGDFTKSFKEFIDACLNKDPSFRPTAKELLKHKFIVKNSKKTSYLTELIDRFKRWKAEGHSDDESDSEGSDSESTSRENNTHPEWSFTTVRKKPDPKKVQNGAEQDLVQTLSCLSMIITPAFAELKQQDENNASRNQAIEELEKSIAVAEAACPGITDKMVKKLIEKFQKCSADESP
Method in brief: as §1

MRCKB = target: T3, MRCKB (Homo sapiens, UniProt Q9Y5S2)
T3 construct: gene CDC42BPB
Method in brief: as §1

JNK1 = target: T4, JNK1 (Homo sapiens, UniProt P45983)
T4 construct: gene MAPK8
Method in brief: as §1

CDKL5 = CDKL5 (Homo sapiens, UniProt O76039)
Method in brief: as §1

[1] = target: T5, RSK2(Kin.Dom.1-N-terminal) (Homo sapiens, UniProt P51812)
T5 construct: gene RPS6KA3; Kin.Dom.1-N-terminal
T5 sequence (P51812 whole entry): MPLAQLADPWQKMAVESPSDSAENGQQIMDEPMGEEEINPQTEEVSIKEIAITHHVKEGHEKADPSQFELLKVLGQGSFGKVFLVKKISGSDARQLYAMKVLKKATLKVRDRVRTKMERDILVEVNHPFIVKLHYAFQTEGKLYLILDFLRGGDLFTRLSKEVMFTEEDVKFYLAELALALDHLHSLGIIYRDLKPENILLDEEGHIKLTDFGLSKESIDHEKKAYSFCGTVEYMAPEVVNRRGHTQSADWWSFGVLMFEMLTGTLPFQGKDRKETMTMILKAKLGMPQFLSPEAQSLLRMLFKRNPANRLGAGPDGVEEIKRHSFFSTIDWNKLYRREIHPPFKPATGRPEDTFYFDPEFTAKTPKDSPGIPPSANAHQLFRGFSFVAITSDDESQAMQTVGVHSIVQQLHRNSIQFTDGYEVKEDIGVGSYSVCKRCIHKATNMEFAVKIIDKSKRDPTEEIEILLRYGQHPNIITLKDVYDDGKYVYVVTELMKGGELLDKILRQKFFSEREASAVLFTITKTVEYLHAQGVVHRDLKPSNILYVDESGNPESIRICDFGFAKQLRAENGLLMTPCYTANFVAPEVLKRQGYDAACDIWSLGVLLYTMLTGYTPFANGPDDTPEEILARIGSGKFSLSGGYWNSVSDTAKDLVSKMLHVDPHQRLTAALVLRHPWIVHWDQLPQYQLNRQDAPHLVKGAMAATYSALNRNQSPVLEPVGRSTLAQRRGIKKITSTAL
Method in brief: as §1

PIP5K1C = PIP5K1C (Homo sapiens, UniProt O60331)
Method in brief: as §1

LOK = target: T6, LOK (Homo sapiens, UniProt O94804)
T6 construct: gene STK10
Method in brief: as §1

CDKL1 = CDKL1 (Homo sapiens, UniProt Q00532)
CDKL1, sequence (Q00532 whole entry): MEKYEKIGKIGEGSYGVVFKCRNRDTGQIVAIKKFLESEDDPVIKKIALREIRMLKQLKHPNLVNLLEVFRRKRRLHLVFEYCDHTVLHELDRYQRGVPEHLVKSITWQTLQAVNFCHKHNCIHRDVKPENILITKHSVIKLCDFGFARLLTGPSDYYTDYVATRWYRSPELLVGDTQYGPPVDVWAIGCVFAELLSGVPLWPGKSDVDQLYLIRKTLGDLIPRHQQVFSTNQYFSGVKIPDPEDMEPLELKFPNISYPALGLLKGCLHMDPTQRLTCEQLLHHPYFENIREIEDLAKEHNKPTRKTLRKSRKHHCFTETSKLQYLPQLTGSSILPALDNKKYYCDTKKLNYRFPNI
Method in brief: as §1

ABL1-phosphorylated = target: T7, ABL1-phosphorylated (Homo sapiens, UniProt P00519)
T7 construct: phosphorylated
T7 sequence (P00519 whole entry): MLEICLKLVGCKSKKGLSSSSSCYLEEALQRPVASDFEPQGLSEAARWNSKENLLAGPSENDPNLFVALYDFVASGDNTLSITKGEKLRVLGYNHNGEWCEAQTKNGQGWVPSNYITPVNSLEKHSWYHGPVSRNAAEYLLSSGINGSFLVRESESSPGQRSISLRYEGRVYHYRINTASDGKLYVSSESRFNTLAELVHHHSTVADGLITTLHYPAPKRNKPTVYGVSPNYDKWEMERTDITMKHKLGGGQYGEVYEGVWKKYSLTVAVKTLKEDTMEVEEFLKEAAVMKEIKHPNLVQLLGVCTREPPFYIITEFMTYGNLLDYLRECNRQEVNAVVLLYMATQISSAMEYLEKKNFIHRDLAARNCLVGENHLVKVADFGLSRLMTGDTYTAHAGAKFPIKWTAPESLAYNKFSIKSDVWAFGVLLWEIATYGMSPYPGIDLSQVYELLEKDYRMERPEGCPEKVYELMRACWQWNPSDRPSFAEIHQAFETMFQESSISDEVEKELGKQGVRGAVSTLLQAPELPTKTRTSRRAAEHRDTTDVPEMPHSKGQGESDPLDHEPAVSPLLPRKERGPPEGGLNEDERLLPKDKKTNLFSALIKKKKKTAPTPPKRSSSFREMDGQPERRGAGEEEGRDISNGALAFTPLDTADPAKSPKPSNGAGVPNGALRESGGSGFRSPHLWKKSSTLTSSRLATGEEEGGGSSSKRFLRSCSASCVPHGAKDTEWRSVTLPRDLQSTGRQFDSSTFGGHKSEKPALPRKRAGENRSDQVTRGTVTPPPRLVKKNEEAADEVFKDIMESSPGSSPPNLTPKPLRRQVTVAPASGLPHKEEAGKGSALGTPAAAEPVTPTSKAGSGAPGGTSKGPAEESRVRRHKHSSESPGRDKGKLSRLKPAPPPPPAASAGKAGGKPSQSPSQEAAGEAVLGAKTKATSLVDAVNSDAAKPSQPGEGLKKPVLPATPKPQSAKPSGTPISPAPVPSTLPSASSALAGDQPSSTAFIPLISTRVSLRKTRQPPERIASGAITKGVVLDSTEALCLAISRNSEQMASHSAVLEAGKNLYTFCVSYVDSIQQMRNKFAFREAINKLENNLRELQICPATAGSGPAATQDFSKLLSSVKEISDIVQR
Method in brief: as §1

p38-delta = target: T8, p38-delta (Homo sapiens, UniProt O15264)
T8 construct: gene MAPK13
T8 sequence (O15264 whole entry): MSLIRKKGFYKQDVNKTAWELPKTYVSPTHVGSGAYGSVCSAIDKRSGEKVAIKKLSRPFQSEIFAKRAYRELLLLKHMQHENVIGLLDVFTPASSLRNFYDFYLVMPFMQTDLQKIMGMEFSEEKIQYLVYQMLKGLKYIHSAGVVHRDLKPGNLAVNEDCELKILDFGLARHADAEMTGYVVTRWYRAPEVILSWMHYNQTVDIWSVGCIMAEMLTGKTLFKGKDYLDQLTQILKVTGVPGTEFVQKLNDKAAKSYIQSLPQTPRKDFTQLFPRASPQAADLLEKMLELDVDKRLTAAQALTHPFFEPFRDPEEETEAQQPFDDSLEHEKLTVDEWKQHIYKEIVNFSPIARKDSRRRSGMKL
Method in brief: as §1

PFTAIRE2 = target: T9, PFTAIRE2 (Homo sapiens, UniProt Q96Q40)
T9 construct: gene CDK15
Method in brief: as §1

ERK8 = target: T10, ERK8 (Homo sapiens, UniProt Q8TD08)
T10 construct: gene MAPK15
Method in brief: as §1

AKT3 = AKT3 (Homo sapiens, UniProt Q9Y243)
AKT3, sequence (Q9Y243 whole entry): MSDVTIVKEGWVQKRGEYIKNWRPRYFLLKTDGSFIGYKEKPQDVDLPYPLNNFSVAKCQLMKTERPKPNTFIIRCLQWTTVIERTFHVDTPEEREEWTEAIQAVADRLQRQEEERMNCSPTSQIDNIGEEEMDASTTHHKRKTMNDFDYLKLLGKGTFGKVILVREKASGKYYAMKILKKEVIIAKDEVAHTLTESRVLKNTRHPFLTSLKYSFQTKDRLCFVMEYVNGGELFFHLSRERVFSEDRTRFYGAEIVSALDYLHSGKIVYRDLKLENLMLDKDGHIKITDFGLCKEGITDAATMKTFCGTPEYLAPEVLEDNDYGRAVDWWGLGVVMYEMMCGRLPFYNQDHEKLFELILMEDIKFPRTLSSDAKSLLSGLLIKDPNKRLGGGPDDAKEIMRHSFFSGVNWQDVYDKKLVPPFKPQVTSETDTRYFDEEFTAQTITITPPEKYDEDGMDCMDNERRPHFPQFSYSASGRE
Method in brief: as §1

CSNK2A2 = CSNK2A2 (Homo sapiens, UniProt P19784)
Method in brief: as §1

EPHA2 = EPHA2 (Homo sapiens, UniProt P29317)
Method in brief: as §1

ACVRL1 = ACVRL1 (Homo sapiens, UniProt P37023)
Method in brief: as §1

FGFR3 = FGFR3 (Homo sapiens, UniProt P22607)
FGFR3, sequence (P22607 whole entry): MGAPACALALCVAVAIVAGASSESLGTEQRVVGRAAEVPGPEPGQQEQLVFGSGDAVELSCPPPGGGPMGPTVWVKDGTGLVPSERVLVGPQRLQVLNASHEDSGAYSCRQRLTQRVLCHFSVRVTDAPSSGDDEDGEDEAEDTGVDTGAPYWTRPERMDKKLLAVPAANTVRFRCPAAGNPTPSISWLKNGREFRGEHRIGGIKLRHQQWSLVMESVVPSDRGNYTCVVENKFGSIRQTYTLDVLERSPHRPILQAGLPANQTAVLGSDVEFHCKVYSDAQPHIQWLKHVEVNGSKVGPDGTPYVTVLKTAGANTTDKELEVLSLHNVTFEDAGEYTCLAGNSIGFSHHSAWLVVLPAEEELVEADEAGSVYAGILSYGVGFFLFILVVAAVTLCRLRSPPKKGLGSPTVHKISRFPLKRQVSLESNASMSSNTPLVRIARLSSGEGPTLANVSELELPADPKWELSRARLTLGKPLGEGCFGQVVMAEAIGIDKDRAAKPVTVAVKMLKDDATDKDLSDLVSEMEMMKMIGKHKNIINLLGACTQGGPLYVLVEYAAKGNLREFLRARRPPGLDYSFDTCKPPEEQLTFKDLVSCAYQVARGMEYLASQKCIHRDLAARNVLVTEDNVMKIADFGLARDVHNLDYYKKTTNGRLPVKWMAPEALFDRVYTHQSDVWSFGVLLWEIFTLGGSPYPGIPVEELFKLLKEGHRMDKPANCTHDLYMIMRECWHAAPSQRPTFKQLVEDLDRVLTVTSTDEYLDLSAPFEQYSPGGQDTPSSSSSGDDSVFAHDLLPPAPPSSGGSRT
Method in brief: as §1

DCAMKL1 = target: T11, DCAMKL1 (Homo sapiens, UniProt O15075)
T11 construct: gene DCLK1
T11 sequence (O15075 whole entry): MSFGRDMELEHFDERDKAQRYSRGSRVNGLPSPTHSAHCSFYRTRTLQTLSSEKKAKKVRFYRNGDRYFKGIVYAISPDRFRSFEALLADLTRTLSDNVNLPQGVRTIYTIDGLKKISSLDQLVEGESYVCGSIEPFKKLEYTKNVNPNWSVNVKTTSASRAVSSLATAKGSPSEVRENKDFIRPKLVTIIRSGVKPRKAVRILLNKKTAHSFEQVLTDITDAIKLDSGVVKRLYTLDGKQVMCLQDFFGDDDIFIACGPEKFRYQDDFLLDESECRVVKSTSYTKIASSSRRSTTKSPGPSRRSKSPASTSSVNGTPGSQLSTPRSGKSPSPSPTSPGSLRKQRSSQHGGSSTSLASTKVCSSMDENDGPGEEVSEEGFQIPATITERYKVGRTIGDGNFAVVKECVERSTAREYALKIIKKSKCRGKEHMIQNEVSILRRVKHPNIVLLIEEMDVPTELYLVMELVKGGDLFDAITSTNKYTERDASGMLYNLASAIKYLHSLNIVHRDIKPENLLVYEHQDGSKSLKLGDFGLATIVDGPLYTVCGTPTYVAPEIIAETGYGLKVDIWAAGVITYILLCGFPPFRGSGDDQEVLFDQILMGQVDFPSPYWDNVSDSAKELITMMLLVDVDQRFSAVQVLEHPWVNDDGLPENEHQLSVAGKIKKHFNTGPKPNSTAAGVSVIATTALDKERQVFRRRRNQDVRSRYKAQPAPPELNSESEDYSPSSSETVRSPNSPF
Method in brief: as §1

MEK3 = target: T12, MEK3 (Homo sapiens, UniProt P46734)
T12 construct: gene MAP2K3
Method in brief: as §1

STK39 = STK39 (Homo sapiens, UniProt Q9UEW8)
Method in brief: as §1

PIK3CA(E542K) = PIK3CA(E542K) (Homo sapiens, UniProt P42336, E542K)
Method in brief: as §1

SYK = SYK (Homo sapiens, UniProt P43405)
Method in brief: as §1

SLK = SLK (Homo sapiens, UniProt Q9H2G2)
Method in brief: as §1

`C=CC(=O)Nc1cc(-n2c(=O)ccc3cnc4ccc(-n5cccn5)cc4c32)ccc1C` [CHMFL-BTK-11] was tested, and the remaining binding at 1 µM (SGK2) was 85%, the remaining binding at 1 µM (JNK2) was 100% and the remaining binding at 1 µM (MST4) was 96%. For the same compound, the remaining binding at 1 µM (MRCKB) was 100%, the remaining binding at 1 µM (JNK1) was 72% and the remaining binding at 1 µM (CDKL5) was 100%. It also gave a remaining binding at 1 µM [1] of 85%, a remaining binding at 1 µM (PIP5K1C) of 82% and a remaining binding at 1 µM (LOK) of 97%. The remaining binding at 1 µM (CDKL1) was 93%, the remaining binding at 1 µM (ABL1-phosphorylated) was 78% and the remaining binding at 1 µM (p38-delta) was 96%. The remaining binding at 1 µM (PFTAIRE2) was 100%, the remaining binding at 1 µM (ERK8) was 99% and the remaining binding at 1 µM (AKT3) was 100%. The remaining binding at 1 µM (CSNK2A2) was 52%, the remaining binding at 1 µM (EPHA2) was 88% and the remaining binding at 1 µM (ACVRL1) was 90%. The remaining binding at 1 µM (FGFR3) was 89%, the remaining binding at 1 µM (DCAMKL1) was 91% and the remaining binding at 1 µM (MEK3) was 86%. For the same compound, the remaining binding at 1 µM (STK39) was 72%, the remaining binding at 1 µM (PIK3CA(E542K)) was 91% and the remaining binding at 1 µM (SYK) was 93%. For the same compound, the remaining binding at 1 µM (SLK) was 100%.
